Assay results taken from patent US5721207A, “Method for treatment of pain” (Innapharma, Inc., priority 1995, dated 1998).

Experiments:
[1] = tested on: rat; assay: Rat hot plate test, single intravenous elcatonin (Example 10); type: in vivo
Experimental: A total of 24 rats, ranging in weight from 320 to 420 g, was used in this study. Four to eight rats were used for each dose level. […] The doses used were 10, 30, 100 and 300 IU/kg (1.61, 4.83, 16.1 and 48.3 μg/kg, respectively).

[2] = tested on: rat; assay: Rat hot plate test, intrathecal elcatonin with 0.1% human serum albumin (Example 13); type: in vivo; conditions: 4.4 IU/kg intrathecal in 0.1% HSA, 5 day multiple administrations (FIG. 9)
Experimental: On each study day, a standard 25% (wt/vol) solution of HSA is diluted under aseptic conditions with physiological saline ([…] of NaCl, USP grade) to achieve the desired stock solution concentration of 0.2% (wt/vol).
Thirty-two male rats (320-420 g) are obtained, adapted, catheterized and recovered as described hereinabove. […] Group II rats are injected intrathecally with a dose of 4.4 IU/kg in physiological saline containing 0.1% HSA, in a volume of 10 μL/kg. Group III rats are injected with physiological saline containing 0.1% HSA, 10 μL/kg. Each dose is followed by a washout of 8 μL of physiological saline.
In each of the study groups, hot plate latencies are determined at 0 minutes (baseline, predose), 1 hour, 3 hours, 6 hours, and 24 hours following intrathecal injections on the 1st, 3rd and 5th study days.

**Q.** With “[Des-Cys^1,ASU^7 ]-Calcitonin, Eel [Elcatonin]” as the substance, how does the “Hot Plate Latency (Mean ± SEM)” value ([1]; 10.0 IU/kg (1.61 μg/kg) intravenous single, 0 hr (baseline)) read?
**A.** 12.03 ± 1.02 s

**Q.** And the “Hot Plate Latency (Mean ± SEM)” value ([1]; 10.0 IU/kg (1.61 μg/kg) intravenous single, 0.25 hr)?
**A.** 11.95 ± 1.40 s

**Q.** What about the “Hot Plate Latency (Mean ± SEM)” value ([1]; 10.0 IU/kg (1.61 μg/kg) intravenous single, 0.5 hr) of the same substance?
**A.** 15.64 ± 2.39 s

**Q.** What about the “Hot Plate Latency (Mean ± SEM)” value ([1]; 10.0 IU/kg (1.61 μg/kg) intravenous single, 1 hr) of the same substance?
**A.** 14.95 ± 2.92 s

**Q.** What about the “Hot Plate Latency (Mean ± SEM)” value ([1]; 10.0 IU/kg (1.61 μg/kg) intravenous single, 3 hr) of the same substance?
**A.** 14.11 ± 0.94 s

**Q.** What about the “Hot Plate Latency (Mean ± SEM)” value ([1]; 10.0 IU/kg (1.61 μg/kg) intravenous single, 6 hr) of the same substance?
**A.** 10.45 ± 1.03 s

**Q.** What about the “Hot Plate Latency (Mean ± SEM)” value ([1]; 10.0 IU/kg (1.61 μg/kg) intravenous single, 24 hr) of the same substance?
**A.** 8.86 ± 1.23 s

**Q.** And the “Hot Plate Latency (Mean ± SEM)” value ([1]; 30.0 IU/kg (4.83 μg/kg) intravenous single, 0 hr (baseline))?
**A.** 10.71 ± 1.02 s

**Q.** What about the “Hot Plate Latency (Mean ± SEM)” value ([1]; 30.0 IU/kg (4.83 μg/kg) intravenous single, 0.25 hr) of the same substance?
**A.** 10.04 ± 0.96 s

**Q.** And the “Hot Plate Latency (Mean ± SEM)” value ([1]; 30.0 IU/kg (4.83 μg/kg) intravenous single, 0.5 hr)?
**A.** 12.18 ± 1.22 s

**Q.** And the “Hot Plate Latency (Mean ± SEM)” value ([1]; 30.0 IU/kg (4.83 μg/kg) intravenous single, 1 hr)?
**A.** 14.14 ± 1.14 s

**Q.** And the “Hot Plate Latency (Mean ± SEM)” value ([1]; 30.0 IU/kg (4.83 μg/kg) intravenous single, 3 hr)?
**A.** 14.26 ± 1.39 s

**Q.** And the “Hot Plate Latency (Mean ± SEM)” value ([1]; 30.0 IU/kg (4.83 μg/kg) intravenous single, 6 hr)?
**A.** 15.12 ± 2.20 s

**Q.** What about the “Hot Plate Latency (Mean ± SEM)” value ([1]; 30.0 IU/kg (4.83 μg/kg) intravenous single, 24 hr) of the same substance?
**A.** 10.76 ± 1.25 s

**Q.** And the “Hot Plate Latency (Mean ± SEM)” value ([1]; 100.0 IU/kg (16.1 μg/kg) intravenous single, 0 hr (baseline))?
**A.** 13.53 ± 1.63 s

**Q.** And the “Hot Plate Latency (Mean ± SEM)” value ([1]; 100.0 IU/kg (16.1 μg/kg) intravenous single, 0.25 hr)?
**A.** 11.05 ± 1.99 s

**Q.** What about the “Hot Plate Latency (Mean ± SEM)” value ([1]; 100.0 IU/kg (16.1 μg/kg) intravenous single, 0.5 hr) of the same substance?
**A.** 9.63 ± 1.21 s

**Q.** What about the “Hot Plate Latency (Mean ± SEM)” value ([1]; 100.0 IU/kg (16.1 μg/kg) intravenous single, 1 hr) of the same substance?
**A.** 11.20 ± 1.95 s

**Q.** And the “Hot Plate Latency (Mean ± SEM)” value ([1]; 100.0 IU/kg (16.1 μg/kg) intravenous single, 3 hr)?
**A.** 14.76 ± 1.19 s

**Q.** And the “Hot Plate Latency (Mean ± SEM)” value ([1]; 100.0 IU/kg (16.1 μg/kg) intravenous single, 6 hr)?
**A.** 14.00 ± 1.83 s

**Q.** What about the “Hot Plate Latency (Mean ± SEM)” value ([1]; 100.0 IU/kg (16.1 μg/kg) intravenous single, 24 hr) of the same substance?
**A.** 14.30 ± 1.33 s

**Q.** And the “Hot Plate Latency (Mean ± SEM)” value ([1]; 300.0 IU/kg (48.3 μg/kg) intravenous single, 0 hr (baseline))?
**A.** 11.22 ± 0.38 s

**Q.** And the “Hot Plate Latency (Mean ± SEM)” value ([1]; 300.0 IU/kg (48.3 μg/kg) intravenous single, 0.25 hr)?
**A.** 11.05 ± 3.82 s

**Q.** And the “Hot Plate Latency (Mean ± SEM)” value ([1]; 300.0 IU/kg (48.3 μg/kg) intravenous single, 0.5 hr)?
**A.** 11.65 ± 2.31 s

**Q.** What about the “Hot Plate Latency (Mean ± SEM)” value ([1]; 300.0 IU/kg (48.3 μg/kg) intravenous single, 1 hr) of the same substance?
**A.** 12.65 ± 2.09 s

**Q.** And the “Hot Plate Latency (Mean ± SEM)” value ([1]; 300.0 IU/kg (48.3 μg/kg) intravenous single, 3 hr)?
**A.** 17.37 ± 4.25 s

**Q.** And the “Hot Plate Latency (Mean ± SEM)” value ([1]; 300.0 IU/kg (48.3 μg/kg) intravenous single, 6 hr)?
**A.** 11.55 ± 2.80 s

**Q.** What about the “Hot Plate Latency (Mean ± SEM)” value ([1]; 300.0 IU/kg (48.3 μg/kg) intravenous single, 24 hr) of the same substance?
**A.** 10.52 s

**Q.** And the “intravenous dose producing a hot plate latency similar to 1.6 IU/kg (0.25 μg/kg) intrathecal” value ([1]; at 0.5 hr)?
**A.** 10.0 IU/kg

**Q.** And the “increase in hot plate latencies” value ([1]; intravenous, 10-300 IU/kg)?
**A.** only small increases in hot plate latencies

**Q.** And the “time of peak effects” value ([1]; intravenous, 10 IU/kg)?
**A.** 30 min

**Q.** What about the dose response effect ([1]; intravenous, 10 to 300 IU/kg) of the same substance?
**A.** No significant dose response effect was observed

**Q.** And the “time of peak effects” value ([1]; intravenous, 30-300 IU/kg)?
**A.** 180 to 360 min

**Q.** And the hot plate latency [2]?
**A.** increase in rat hot plate latency
